According to PMC10349922 (Bioconjugate chemistry, 2023):
pIC50: −log10 of the molar value.

Target: human Galectin-3 (Gal-3); His-Galectin-3 (Homo sapiens, UniProt P17931)
Test: competitive enzyme-linked lectin assay
Assay type: binding
Conditions: His-Galectin-3 vs S0G2-BSA coated plate, PBS, r.t.

Chain of human Galectin-3 (Gal-3); His-Galectin-3 (P17931 2-250): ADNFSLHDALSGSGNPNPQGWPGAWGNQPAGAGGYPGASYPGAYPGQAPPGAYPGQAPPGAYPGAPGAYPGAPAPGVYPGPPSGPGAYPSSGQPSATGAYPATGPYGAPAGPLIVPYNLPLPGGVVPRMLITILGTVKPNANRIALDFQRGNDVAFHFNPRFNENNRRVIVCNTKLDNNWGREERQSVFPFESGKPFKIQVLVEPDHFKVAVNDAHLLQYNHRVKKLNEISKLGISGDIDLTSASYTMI

**Q.** How did the pIC50 turn out when `CC(=O)N[C@@H]1[C@@H](O)[C@H](O[C@@H]2O[C@H](CO)[C@@H](O[C@@H]3O[C@H](CO[C@H]4O[C@H](CO)[C@@H](O)[C@H](O)[C@@H]4O[C@@H]4O[C@H](CO)[C@@H](O[C@@H]5O[C@H](CO)[C@H](O)[C@H](O)[C@H]5O)[C@H](O)[C@H]4NC(C)=O)[C@@H](O)[C@H](O[C@H]4O[C@H](CO)[C@@H](O)[C@H](O)[C@@H]4O[C@@H]4O[C@H](CO)[C@@H](O[C@@H]5O[C@H](CO)[C@H](O)[C@H](O)[C@H]5O)[C@H](O)[C@H]4NC(C)=O)[C@@H]3O)[C@H](O)[C@H]2NC(C)=O)[C@@H](CO)O[C@H]1NC(=O)C[C@H](N)C(=O)O` [compound 1, S0G2-Asn] was run?
**A.** Its pIC50 is 5.11.
